Laboratory results taken from US20240360174A1, “CELL-PENETRATING PEPTIDE SEQUENCES” (Ohio State Innovation Foundation, priority 2016, published 2024).
Bridge positions count the residues as written; N and C are the ends. Square brackets hold non-standard residues; d marks the D form. Ends that are not written are not given here. 2Nal = N[C@@H](Cc1ccc2ccccc2c1)C(=O)O; Pip = O=C(O)[C@@H]1CCCCN1; Dap = NC[C@H](N)C(=O)O

Test system: HeLa cells
Test: Cellular uptake / cytosolic delivery efficiency of NF-labelled peptides by flow cytometry
Type: cell-based
Details: 2 h, 5 mM naphthofluorescein-labelled peptide, relative to CPP 1 (100%), mean ± S.D. of three independent experiments
Excerpt: Absolute cytosolic delivery efficiency is the ratio of cytosolic concentration of a CPP (or a CPP-cargo conjugate) over the concentration of the CPP (or the CPP-cargo conjugate) in the growth medium. Relative cytosolic delivery efficiency refers to the concentration of a CPP in the cytosol compared to the concentration of a control CPP in the cytosol. Quantification can be achieved by fluorescently labeling the CPP (e.g., with a FTIC dye) and measuring the fluorescence intensity using techniques well-known in the art.
In particular embodiments, relative cytosolic delivery efficiency is determined by comparing (i) the amount of a CPP of the invention internalized by a cell type (e.g., HeLa cells) to (ii) the amount of the control CPP internalized by the same cell type. To measure relative cytosolic delivery efficiency, the cell type may be incubated in the presence of a cell-penetrating peptide of the invention for a specified period of time (e.g., 30 minutes, 1 hour, 2 hours, etc.) after which the amount of the CPP internalized by the cell is quantified using methods known in the art, e.g., fluorescence microscopy. Separately, the same concentration of the control CPP is incubated in the presence of the cell type over the same period of time, and the amount of the control CPP internalized by the cell is quantified.
To determine cellular uptake efficiency of the CPPs disclosed herein, HeLa cells were cultured in 12-well plates (1.5×10^5 cells per well) overnight. The cells were incubated for 2 h with […] naphthofluorescein (NF)-labelled peptide in cellular media. At the end of incubation, the cells were washed with DPBS twice, detached from the plate with 0.25% trypsin, diluted into clear DMEM, pelleted at 250 g for 5 min, washed twice with DPBS, resuspended in DPBS, and analyzed on a BD FACS LSR II flow cytometer. For NF-labelled peptides, a 633-nm laser was used for excitation and the fluorescence emission was analyzed in the APC channel. Absolute cellular uptake efficiency was determined by comparing the concentration (via fluorescence intensity) of the CPP in the cytosol to the concentration in the extracellular medium.

Substance | Relative Cytosolic Delivery Efficiency
Ac-(Dap-fFRrRrD) (Ac-[Dap][dF]FR[dR]R[dR]D; not fully specified (bridges); printed as Ac-(Dap-fFRrRrD); also: cyclic, closure sites not given here) [SAR 67] | 126 ± 33%
Ac-(Lys-fFRrRrD) (K[dF]FR[dR]R[dR]D; not fully specified (N-terminus, bridges); printed as Ac-(Lys-fFRrRrD); also: cyclic, closure sites not given here) [SAR 66] | 129 ± 9%
SAR 68 (CWWRRRRC; disulfide 1-8) | 51%
SAR 69 (CWWVRRRRC; disulfide 1-9) | 67%
SAR 70 (CFWRRRRC; disulfide 1-8) | 49%
SAR 71 (CWWWRRRC; disulfide 1-8) | 135%
cyclo(FFFRAQ) (cyclic) [SAR 26] | 52 ± 2%
cyclo(FFFRRQ) (cyclic) [SAR 27] | 125 ± 25%
cyclo(FFFRRRQ) (cyclic) [SAR 34] | 231 ± 43%
cyclo(FFFRRRRQ) (cyclic) [SAR 45] | 122 ± 20%
cyclo(FFFRRRRRQ (cyclic) [SAR 53] | 145 ± 27%
cyclo(FFFRRRRRR (FFFRRRRRRQ; cyclic) [SAR 54] | 141 ± 10%
cyclo(FFRFRRQ) (cyclic) [SAR 38] | 106 ± 22%
cyclo(FFRRFRQ) (cyclic) [SAR 39] | 86 ± 12%
cyclo(FFRRFRRQ) (cyclic) [SAR 50] | 46 ± 2%
cyclo(FFRRRFQ) (cyclic) [SAR 35] | 158 ± 21%
cyclo(FFRRRQ) (cyclic) [SAR 19] | 89 ± 34%
cyclo(FFRRRRFQ) (cyclic) [SAR 51] | 162 ± 16%
cyclo(FFRRRRQ) (cyclic) [SAR 28] | 89 ± 27%
cyclo(FFRrRQ) (cyclo(FFR[dR]RQ); SMILES N=C(N)NCCC[C@@H]1NC(=O)[C@H](Cc2ccccc2)NC(=O)[C@H](Cc2ccccc2)NC(=O)[C@H](CCC(N)=O)NC(=O)[C@H](CCCNC(=N)N)NC(=O)[C@@H](CCCNC(=N)N)NC1=O) [SAR 21] | 59 ± 7%
cyclo(FFrRrQ) (cyclo(FF[dR]R[dR]Q); SMILES N=C(N)NCCC[C@@H]1NC(=O)[C@@H](CCCNC(=N)N)NC(=O)[C@H](Cc2ccccc2)NC(=O)[C@H](Cc2ccccc2)NC(=O)[C@H](CCC(N)=O)NC(=O)[C@@H](CCCNC(=N)N)NC1=O) [SAR 20] | 118 ± 5%
cyclo(FRFRFRQ) (cyclic) [SAR 42] | 105 ± 14%
cyclo(FRFRRQ) (cyclic) [SAR 22] | 15 ± 3%

Substance | Relative Cytosolic Delivery Efficiency
cyclo(FRFRRRQ) (cyclic) [SAR 33] | 132 ± 57%
cyclo(FRRFFRQ) (cyclic) [SAR 40] | 109 ± 11%
cyclo(FRRFFRRQ) (cyclic) [SAR 52] | 127 ± 22%
cyclo(FRRFRFQ) (cyclic) [SAR 41] | 101 ± 16%
cyclo(FRRFRQ) (cyclic) [SAR 23] | 38 ± 10%
cyclo(FRRFRRQ) (cyclic) [SAR 29] | 31 ± 3%
cyclo(FRRRFQ) (cyclic) [SAR 24] | 25 ± 4%
cyclo(FRRRFRQ) (cyclic) [SAR 30] | 20 ± 3%
cyclo(FfFRrRQ) (cyclo(F[dF]FR[dR]RQ); SMILES N=C(N)NCCC[C@@H]1NC(=O)[C@H](Cc2ccccc2)NC(=O)[C@@H](Cc2ccccc2)NC(=O)[C@H](Cc2ccccc2)NC(=O)[C@H](CCC(N)=O)NC(=O)[C@H](CCCNC(=N)N)NC(=O)[C@@H](CCCNC(=N)N)NC1=O) [SAR 57] | 218 ± 9%
cyclo(FfFrRrQ) (cyclo(F[dF]F[dR]R[dR]Q); SMILES N=C(N)NCCC[C@@H]1NC(=O)[C@@H](CCCNC(=N)N)NC(=O)[C@H](Cc2ccccc2)NC(=O)[C@@H](Cc2ccccc2)NC(=O)[C@H](Cc2ccccc2)NC(=O)[C@H](CCC(N)=O)NC(=O)[C@@H](CCCNC(=N)N)NC1=O) [SAR 60] | 205 ± 30%
cyclo(FΦRRRQ) (cyclo(F[2Nal]RRRRQ); SMILES N=C(N)NCCC[C@@H]1NC(=O)[C@H](CCCNC(=N)N)NC(=O)[C@H](CCCNC(=N)N)NC(=O)[C@H](Cc2ccc3ccccc3c2)NC(=O)[C@H](Cc2ccccc2)NC(=O)[C@H](CCC(N)=O)NC(=O)[C@H](CCCNC(=N)N)NC1=O) [SAR 1, control CPP, reference compound] | 100 ± 6%
cyclo(FΦRrRrQ) (cyclo(F[2Nal]R[dR]R[dR]Q); SMILES N=C(N)NCCC[C@@H]1NC(=O)[C@H](Cc2ccc3ccccc3c2)NC(=O)[C@H](Cc2ccccc2)NC(=O)[C@H](CCC(N)=O)NC(=O)[C@@H](CCCNC(=N)N)NC(=O)[C@H](CCCNC(=N)N)NC(=O)[C@@H](CCCNC(=N)N)NC1=O) [SAR 55] | 212 ± 42%
cyclo(FΦrRrQ) (cyclo(F[2Nal][dR]R[dR]Q); SMILES N=C(N)NCCC[C@@H]1NC(=O)[C@@H](CCCNC(=N)N)NC(=O)[C@H](Cc2ccc3ccccc3c2)NC(=O)[C@H](Cc2ccccc2)NC(=O)[C@H](CCC(N)=O)NC(=O)[C@@H](CCCNC(=N)N)NC1=O) [SAR 64] | 63 ± 11%
cyclo(GΦRRRQ) [SAR 25] (cyclo(G[2Nal]RRRQ); SMILES N=C(N)NCCC[C@@H]1NC(=O)[C@H](Cc2ccc3ccccc3c2)NC(=O)CNC(=O)[C@H](CCC(N)=O)NC(=O)[C@H](CCCNC(=N)N)NC(=O)[C@H](CCCNC(=N)N)NC1=O) | 49 ± 5%
cyclo(GΦRRRQ) [SAR 44] (cyclo(G[2Nal]RRRRQ); SMILES N=C(N)NCCC[C@@H]1NC(=O)[C@H](Cc2ccc3ccccc3c2)NC(=O)CNC(=O)[C@H](CCC(N)=O)NC(=O)[C@H](CCCNC(=N)N)NC(=O)[C@H](CCCNC(=N)N)NC(=O)[C@H](CCCNC(=N)N)NC1=O) | 55 ± 5%
cyclo(Pip-Nal-Arg-Arg-arg-arg-glu) (cyclo([Pip][2Nal]RR[dR][dR][dE]); SMILES N=C(N)NCCC[C@@H]1NC(=O)[C@H](Cc2ccc3ccccc3c2)NC(=O)[C@@H]2CCCCN2C(=O)[C@@H](CCC(=O)O)NC(=O)[C@@H](CCCNC(=N)N)NC(=O)[C@@H](CCCNC(=N)N)NC(=O)[C@H](CCCNC(=N)N)NC1=O) [Pin1 16] | 18 ± 2%
cyclo(Pip-Nal-Arg-Glu-arg-arg-glu) (cyclo([Pip][2Nal]RE[dR][dR][dE]); SMILES N=C(N)NCCC[C@@H]1NC(=O)[C@H](Cc2ccc3ccccc3c2)NC(=O)[C@@H]2CCCCN2C(=O)[C@@H](CCC(=O)O)NC(=O)[C@@H](CCCNC(=N)N)NC(=O)[C@@H](CCCNC(=N)N)NC(=O)[C@H](CCC(=O)O)NC1=O) [Pin1 15] | 7.7 ± 0.5%
cyclo(Pip-Nal-Nal-Arg-arg-arg-Glu) [Pin1 18] | 340 ± 130%
cyclo(Pip-Nal-Nal-Arg-arg-arg-glu) [Pin1 17] | 506 ± 120%
cyclo(Pip-Nal-Phe-Arg-arg-arg-Glu) [Pin1 20] | 15 ± 6%
cyclo(Pip-Nal-Phe-Arg-arg-arg-glu) (cyclo([Pip][2Nal]FR[dR][dR][dE]); SMILES N=C(N)NCCC[C@@H]1NC(=O)[C@H](Cc2ccccc2)NC(=O)[C@H](Cc2ccc3ccccc3c2)NC(=O)[C@@H]2CCCCN2C(=O)[C@@H](CCC(=O)O)NC(=O)[C@@H](CCCNC(=N)N)NC(=O)[C@@H](CCCNC(=N)N)NC1=O) [Pin1 19] | 19 ± 16%
cyclo(Pip-Nal-nal-Arg-arg-arg-Glu) [Pin1 23] | 215 ± 86%
cyclo(Pip-Nal-nal-Arg-arg-arg-glu) [Pin1 24] | 141 ± 64%
